21 compounds from patent US20250361230A1, “LATS Inhibitors and Uses Thereof” (The USA, as Represented by the Secretary, Dept. of Heath …, priority 2022, published 2025) can be followed below.

As a reminder, the IC50 is the concentration at which inhibition is half-maximal.

In the first experiment the target is T1, AKT Kinase-NanoLuc fusion in HEK-293 cells (Homo sapiens, UniProt P31749).
T1 construct: host or cells: HEK-293
T1 sequence (P31749 whole entry, the tested form may be a part): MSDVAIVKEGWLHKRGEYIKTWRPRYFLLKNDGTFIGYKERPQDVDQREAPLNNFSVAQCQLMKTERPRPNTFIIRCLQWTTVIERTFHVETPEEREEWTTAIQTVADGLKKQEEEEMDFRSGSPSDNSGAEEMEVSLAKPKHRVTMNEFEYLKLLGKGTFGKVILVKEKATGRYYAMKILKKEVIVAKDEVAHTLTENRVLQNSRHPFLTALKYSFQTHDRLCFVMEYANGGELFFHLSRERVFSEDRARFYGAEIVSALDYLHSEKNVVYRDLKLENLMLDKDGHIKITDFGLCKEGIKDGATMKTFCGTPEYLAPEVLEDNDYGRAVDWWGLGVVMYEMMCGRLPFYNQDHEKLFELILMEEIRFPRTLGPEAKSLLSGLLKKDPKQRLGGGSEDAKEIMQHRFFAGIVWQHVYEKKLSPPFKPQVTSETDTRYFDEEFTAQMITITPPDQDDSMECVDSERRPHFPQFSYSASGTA
The experiment can be described thus: NanoBRET target engagement assay in transfected HEK-293 cells, AKT. The class given is cell-based. The conditions noted are these: Table 28, NanoBRET, HEK-293 cells; read-out: AKT1 (Cellular) IC50. The text has this: The NanoBRET™ assay measures kinase engagement in real time in the context of the intact cell. The assay uses a Kinase-NanoLuc® fusion vector expressing a kinase protein to which a luciferase tag has been added, a cell-permeant fluorescent NanoBRET™ tracer, a NanoLuc® substrate, and an extracellular NanoLuc® inhibitor. Upon expression of the luciferase-tagged kinase, cells will produce a strong BRET signal only in the presence of the NanoBRET™ tracer. The extracellular NanoLuc® inhibitor ensures that the BRET signal observed emanates only from live cells. Because the BRET signal has tight distance constraints, addition of the test compound will decrease the BRET signal if the compound competes with the NanoBRET™ tracer for binding to the kinase domain. Under the appropriate tracer conditions established by the manufacturer, quantitative intracellular affinity and relative potency can then be determined using Mass Action model equations.
HEK-293 cells were purchased from ATCC. FuGENEHD Transfection Reagent, Kinase-NanoLuc® fusion plasmids, Transfection Carrier DNA, NanoBRET™ Tracers and dilution buffer, NanoBRET™ Nano-Glo Substrate, Extracellular NanoLuc® Inhibitor were obtained from Promega.
Assays were conducted following Promega assay protocol with some modifications as described further below. HEK-293 Cells were transiently transfected with Kinase-NanoLuc® Fusion Vector DNA by FuGENE HD Transfection Reagent. Test compounds were delivered into 384 well assay plate by Echo 550 (Labcyte Inc, Sunnyvale, CA). Transfected cells were harvested and mixed with NanoBRET™ Tracer Reagent and dispensed into 384 well plates and incubated at 37° C. in 5% CO2 cell culture incubator for 1 hour. The NanoBRET™ Nano-Glo Substrate plus Extracellular NanoLuc® Inhibitor Solution were added into the wells of the assay plate and incubated for 2-3 minutes at room temperature. The donor emission wavelength (460 nm) and acceptor emission wavelength (600 nm) were measured in the EnVision plate reader. The BRET Ratios were calculated. BRET Ratio=[(Acceptor sample÷Donor sample)−(Acceptor no-tracer control÷Donor no-tracer control)]. The IC50 values of compounds were calculated with Prism GraphPad program.
• 1. Transient Transfection of HEK-293 Cells NanoLuc® Fusion Vector DNA • 1). Cultivate HEK-293 cells (70-80% confluence) appropriately prior to assay. Trypsinize and collect HEK-293 cells. • 2). Prepare lipid: DNA complexes as follows: • a. Prepare a […] solution of DNA in Opti-MEM™ without serum that consists of the following ratios of carrier DNA and DNA encoding NanoLuc® fusion. 9.0 µg/mL of Transfection Carrier DNA, […] of NanoLuc® fusion vector DNA and 1 mL of Opti-MEM™ without phenol red. Mix thoroughly. • b. Add 30 μl of FuGENE HD Transfection Reagent into each milliliter of DNA mixture to form lipid: DNA complex. • c. Mix by inversion 10 times. • d. Incubate at ambient temperature for 20 minutes to allow complexes to form. • 3). In a sterile, conical tube, mix 1 part of lipid: DNA complex with 20 parts of HEK-293 cells in suspension. Mix gently by inversion 5 times. • 4). Dispense cells+lipid: DNA complex into a sterile tissue culture dish and incubate for 22-24 hours. • 2. Addition of Test Compounds (dry plate shooting): Each test compound is delivered from the compound source plate to the wells of 384-well white NBS plate by Echo 550. • 3. Preparation of Cells with NanoBRET™ Tracer Reagent • 1). Remove medium from dish with transfected HEK-293 cells via aspiration, trypsinize and allow cells to dissociate from the dish. • 2). Neutralize trypsin using medium containing serum and centrifuge at 200× g for 5 minutes to pellet the cells. Adjust the cell density to 2×10^5 cells/mL in Opti-MEM™ without phenol red. • 3). Prepare Complete 20× NanoBRET™ Tracer Reagent with Tracer Dilution Buffer. • 4). Dispense one part of Complete 20× NanoBRET™ Tracer Reagent to 20 parts of cells in the tube. Mix gently by inversion 10 times. • 5). […]
In general terms: Bioluminescence resonance energy transfer reports proximity on the nanometre scale.
With `COC(=O)c1c[nH]c2nccc(-c3cc(C)c([C@@]4(O)[C@H](C)CN(C5CCS(=O)(=O)CC5)C[C@@H]4C)c(F)c3)c12` [Compound 309, methyl 4-(4-((3S,4s,5R)-1-(1,1-dioxidotetrahydro-2H-thiopyran-4-yl)-4-hydroxy-3,5-dimethylpiperidin-4-yl)-3-fluoro-5-methylphenyl)-1H-pyrrolo[2,3-b]pyridine-3-carboxylate], the IC50 amounted to 39.9 µM.
The same measure, in the same setting: the result for `COC(=O)c1c[nH]c2nccc(-c3cc(C)c([C@@]4(O)[C@H](C)CN(C(=O)CN)C[C@@H]4C)c(F)c3)c12` [Compound 310, methyl 4-(3-fluoro-4-((3S,4s,5R)-1-glycyl-4-hydroxy-3,5-dimethylpiperidin-4-yl)-5-methylphenyl)-1H-pyrrolo[2,3-b]pyridine-3-carboxylate] reads 49.4 µM; that for `Cc1cc(-c2ccnc3[nH]cc(F)c23)cc(F)c1[C@@]1(O)[C@H](C)CN(C(=O)[C@H](N)CO)C[C@@H]1C` [Compound 312, (R)-2-amino-1-((3S,4R,5R)-4-(2-fluoro-4-(3-fluoro-1H-pyrrolo[2,3-b]pyridin-4-yl)-6-methylphenyl)-4-hydroxy-3,5-dimethylpiperidin-1-yl)-3-hydroxypropan-1-one], 12.8 µM; that for `Cc1cc(-c2ccnc3[nH]cc(F)c23)cc(F)c1[C@@]1(O)[C@H](C)CN(C(=O)[C@@H](CO)N(C)C)C[C@@H]1C` [Compound 313, (R)-2-(dimethylamino)-1-((3S,4S,5R)-4-(2-fluoro-4-(3-fluoro-1H-pyrrolo[2,3-b]pyridin-4-yl)-6-methylphenyl)-4-hydroxy-3,5-dimethylpiperidin-1-yl)-3-hydroxypropan-1-one], 19.2 µM.
Still for that read-out and setting: the result for `OC1(c2ccc(-c3ccnc4[nH]cc(F)c34)cc2)CC2(CNC2)C1` [Compound 319, 6-(4-(3-fluoro-1H-pyrrolo[2,3-b]pyridin-4-yl)phenyl)-2-azaspiro[3.3]heptan-6-ol] reads 44.8 µM.

Staying with this experiment, now noted: Table 32, NanoBRET, HEK-293 cells; read-out: AKT (Cellular) IC50.
Consider `NCC(O)(c1ccc(Cl)cc1)c1ccc(-c2ccnc3[nH]ccc23)cc1` (stereo not drawn) [Compound 1001, 1-(4-(1H-pyrrolo[2,3-b]pyridin-4-yl)phenyl)-2-amino-1-(4-chlorophenyl)ethan-1-ol], for which the IC50 is 0.042 µM.
With `NCC(O)(c1ccc(Cl)cc1)c1ccc(-c2ccnc3[nH]cc(F)c23)cc1` (stereo not drawn) [Compound 1002, 2-amino-1-(4-chlorophenyl)-1-(4-(3-fluoro-1H-pyrrolo[2,3-b]pyridin-4-yl)phenyl)ethan-1-ol], the IC50 is 0.027 µM.
Same read-out and setting: the value for `COC(=O)c1c[nH]c2nccc(-c3ccc(C(O)(CN)c4ccc(Cl)cc4)cc3)c12` (stereo not drawn) [Compound 1004, Methyl 4-(4-(2-amino-1-(4-chlorophenyl)-1-hydroxyethyl)phenyl)-1H-pyrrolo[2,3-b]pyridine-3-carboxylate] was 0.548 µM.
Turning to `NCC(O)(c1ccc(Cl)cc1)c1ccc(-c2ccnc3[nH]cc(Br)c23)cc1` (stereo not drawn) [Compound 1005, 2-amino-1-(4-(3-bromo-1H-pyrrolo[2,3-b]pyridin-4-yl)phenyl)-1-(4-chlorophenyl)ethan-1-ol], the IC50 is 0.0029 µM.
Still for that read-out and setting: the result for `NCC(O)(c1ccc(Cl)cc1)c1ccc(-c2ccnc3[nH]cc(-c4ccccc4)c23)cc1` (stereo not drawn) [Compound 1006, 2-amino-1-(4-chlorophenyl)-1-(4-(3-phenyl-1H-pyrrolo[2,3-b]pyridin-4-yl)phenyl)ethan-1-ol] reads 0.135 µM; that for `NCC(O)(c1ccc(Cl)cc1)c1ccc(-c2ccnc3[nH]cc(-c4cccnc4)c23)cc1` (stereo not drawn) [Compound 1007, 2-amino-1-(4-chlorophenyl)-1-(4-(3-(pyridin-3-yl)-1H-pyrrolo[2,3-b]pyridin-4-yl)phenyl)ethan-1-ol], 0.153 µM; that for `NCC(O)(c1ccc(Cl)cc1)c1ccc(-c2ccnc3[nH]cc(Br)c23)nc1` (stereo not drawn) [Compound 1011, 2-amino-1-(6-(3-bromo-1H-pyrrolo[2,3-b]pyridin-4-yl)pyridin-3-yl)-1-(4-chlorophenyl)ethan-1-ol], 0.0763 µM.
Same read-out and setting: the result for `NCC(=O)NCC(O)(c1ccc(Cl)cc1)c1ccc(-c2ccnc3[nH]cc(Cl)c23)cc1` (stereo not drawn) [Compound 1021, 2-amino-N-(2-(4-(3-chloro-1H-pyrrolo[2,3-b]pyridin-4-yl)phenyl)-2-(4-chlorophenyl)-2-hydroxyethyl) acetamide] reads 0.012 µM.

Staying with this experiment, now noted: cellular; read-out: AKT (Cellular) IC50.
As for `Cc1cc(-c2ccnc3[nH]cc(C#N)c23)cc(F)c1[C@@]1(O)[C@H](C)CN(C2CCS(=O)(=O)CC2)C[C@@H]1C` [Compound 2002, 4-(4-((3S,4s,5R)-1-(1,1-dioxidotetrahydro-2H-thiopyran-4-yl)-4-hydroxy-3,5-dimethylpiperidin-4-yl)-3-fluoro-5-methylphenyl)-1H-pyrrolo[2,3-b]pyridine-3-carbonitrile], the IC50 came to 57.9 µM.
The same measure, in the same setting: the result for `Cc1cc(-c2ccnc3[nH]cc(C#N)c23)cc(F)c1[C@@]1(O)[C@H](C)CN(C(=O)CN)C[C@@H]1C` [Compound 2004, 4-(3-fluoro-4-((3S,4s,5R)-1-glycyl-4-hydroxy-3,5-dimethylpiperidin-4-yl)-5-methylphenyl)-1H-pyrrolo[2,3-b]pyridine-3-carbonitrile] reads 51.7 µM; that for `Cc1cc(-c2ccnc3[nH]cc(C#N)c23)ccc1[C@@]1(O)[C@H](C)CN(C(=O)CN)C[C@@H]1C` [Compound 2005, 4-(4-((3S,4s,5R)-1-glycyl-4-hydroxy-3,5-dimethylpiperidin-4-yl)-3-methylphenyl)-1H-pyrrolo[2,3-b]pyridine-3-carbonitrile], 56.8 µM; that for `Cc1cc(-c2ccnc3[nH]cc(C#N)c23)cc(F)c1[C@@]1(O)[C@H](C)CN(C(=O)[C@H](N)CO)C[C@@H]1C` [Compound 2007, 4-(4-((3S,4S,5R)-1-(D-seryl)-4-hydroxy-3,5-dimethylpiperidin-4-yl)-3-fluoro-5-methylphenyl)-1H-pyrrolo[2,3-b]pyridine-3-carbonitrile], > 50 µM.
Still for that read-out and setting: the value for `Cc1cc(-c2ccnc3[nH]cc(C#N)c23)cc(F)c1[C@@]1(O)[C@H](C)CN(C(=O)[C@](C)(N)CO)C[C@@H]1C` [Compound 2008, 4-(4-((3S,4s,5R)-1-(2-amino-3-hydroxy-2-methylpropanoyl)-4-hydroxy-3,5-dimethylpiperidin-4-yl)-3-fluoro-5-methylphenyl)-1H-pyrrolo[2,3-b]pyridine-3-carbonitrile] was > 50 µM; that for `Cc1cc(-c2ccnc3[nH]cc(C#N)c23)cc(F)c1[C@@]1(O)[C@H](C)CN(C(=O)[C@H](C)N)C[C@@H]1C` [Compound 2011, 4-(4-((3S,4R,5R)-1-(L-alanyl)-4-hydroxy-3,5-dimethylpiperidin-4-yl)-3-fluoro-5-methylphenyl)-1H-pyrrolo[2,3-b]pyridine-3-carbonitrile] was > 50 µM.
In the case of `CNCC(=O)N1C[C@@H](C)[C@](O)(c2c(C)cc(-c3ccnc4[nH]cc(C#N)c34)cc2F)[C@@H](C)C1` [Compound 2012, 4-(3-fluoro-4-((3S,4s,5R)-4-hydroxy-3,5-dimethyl-1-(methylglycyl)piperidin-4-yl)-5-methylphenyl)-1H-pyrrolo[2,3-b]pyridine-3-carbonitrile], the IC50 is > 50 µM.
Turning to `Cc1cc(-c2ccnc3[nH]cc(C#N)c23)cc(F)c1[C@@]1(O)[C@H](C)CN(C(=O)CNCC(F)(F)F)C[C@@H]1C` [Compound 2014, 4-(3-fluoro-4-((3S,4s,5R)-4-hydroxy-3,5-dimethyl-1-((2,2,2-trifluoroethyl)glycyl)piperidin-4-yl)-5-methylphenyl)-1H-pyrrolo[2,3-b]pyridine-3-carbonitrile], the IC50 was > 50 µM.
